Measured values from patent US20230338529A1, “COMPOSITIONS FOR ALTERING A MICROGLIAL CELL, AND METHODS OF USE THEREFORE” (The Children's Medical Center Corporation, priority 2020, published 2023).

What was measured:
[1] = tested on: neonatal spinal cord lesion after P2 crush; test: P2 spinal cord crush with microglia depletion: bridge formation, wound healing and axon regrowth by immunostaining; format: in vivo, mice
Description: Newborn pups (P2/P7) were anesthetized by isoflurane. A laminectomy was performed at T10 until the spinal cord was exposed completely from side-to-side. The spinal cord was then fully crushed for 2 seconds with forceps with a width of 0.1 mm in the last 5 mm of tips. The muscles and skin were sutured in layers with 6-0 sutures. EMLA topical cream was used for post-surgery analgesia. Animals then were warmed up and kept in a box containing the bedding from the original cage for at least 30 minutes. After that, the closed surgical site was rubbed with the feces from the mom using a Q-tip and then returned to the mom. Feeding was closely monitored in the first week after surgery. Nutra-Gel diets (Bio-Serv) or breeder chow diets were provided to avoid cannibalism. […] In case of bladder dysfunction, bladder emptying was performed once a day until bladder function was restored.
(§1) Mice were given a lethal dose of anesthesia and transcardially perfused with PBS followed by 4% paraformaldehyde (PFA). PFA fixed tissues were incubated in 30% sucrose in PBS for 3 days at 4° C., embedded in OCT (Tissue-Tek), frozen in a dry ice/ethanol bath, and stored at -80° C. Transverse and sagittal sections were cut on a cryostat at 30 µm thick and stored at -20° C. until processed. Before staining, sections were warmed to room temperature and dried on a 37° C. slide warmer for 2 h. Sections then were treated with a blocking solution containing 10% normal donkey serum and 0.5% Triton-100 for 2 hours at room temperature. The primary antibodies used were: rabbit/goat anti-5-HT [Immunostar (20080/20079), 1: 5,000]; rabbit anti-GFAP [DAKO (Z0334), 1:600]; rat anti-GFAP [Thermo Fisher (13-0300), 1:600]; rabbit anti-P2Y12 [AnaSpec (AS-55043A), 1:200]; rat anti-CD68 [Bio-Rad (MCA1957), 1:600]; rabbit anti-Fibronectin [Millipore (AB2033), 1:200]; rabbit anti- Collagen I [Abcam (ab21286), 1:200]; chicken anti-GFP [Abcam (ab13970), 1:400]; goat anti-SPP1 [R&D (AF808), 1:400]; mouse anti-Ly6G/Ly6C [R&D (MAB1037), 1:200]; mouse anti-CSPG [Sigma-Aldrich (C8035), 1:200]; rabbit anti-CSPG [Sigma-Aldrich (L9393), 1:500]; rabbit anti-RFP [Abcam (ab34771), 1:400]. Secondary antibodies included: Alexa Fluor 488-conjugated donkey anti chicken/rabbit; Alexa Fluor 555-conjugated donkey anti goat/rabbit/mouse and Dylight 650-conjugated donkey anti rat (all from Invitrogen). Spinal cord transverse and sagittal sections were imaged with a confocal laser-scanning microscope (Zeiss 700 or Zeiss 710). Figures showing large longitudinal spinal cord section were acquired using Zeiss 710 with image stitching and/or stack software.
The lesion site was defined and traced using Collagen I, Fibronectin, GFAP, P2Y12, CD68, CD31, CSPG, Laminin or Ly6G/Ly6C staining. Mice were perfused separately at 3, 7 or 14 days after spinal cord crush as described above to visualize lesion site. Cell nuclei were stained by incubation with DAPI for 30 seconds. Immunostaining intensity in the lesion site (100 µm width region in the epicenter) was measured using ImageJ software and normalized to the intact (proximal) region of the spinal cord.
To quantify the regenerating/late-arriving 5-HT/CST axons after spinal cord crush, sagittal sections through the lesion were stained with antibodies against 5-HT or RFP. Images of 5-6 sections for each animal were taken under a 10X objective and used for quantification. A series of rectangular segments 100 µm wide and 400 µm high covering the dorsal-ventral aspect of the cord were superimposed onto the sagittal sections, starting from lesion center up to a defined distance caudal. After subtracting the background, the pixel value of each segment was normalized by dividing with the rostral segment (1 mm rostral). The results were presented as a ratio at different distances (axons density index).
To deplete microglia in vivo, adult mice were given the CSF1R inhibitor PLX3397 mixed into AIN-76A standard chow (Research Diets). […]

[2] = tested on: microglia; test: Microglia depletion in vivo with PLX3397, P2Y12-stained spinal cord; design: species or system mice; settings: 7 days after PLX3397 treatment; P2Y12 staining
Description: as §1, with “Secondary antibodies included: Alexa Fluor 488-conjugated donkey anti chicken/rabbit; Alexa Fluor 555-conjugated donkey anti goat/rabbit/mouse and Dylight 650-conjugated donkey anti rat (all from Invitrogen). Spinal cord transverse and sagittal sections were imaged with a confocal laser-scanning microscope (Zeiss 700 or Zeiss 710). Figures showing large longitudinal spinal cord section were acquired using Zeiss 710 with image stitching and/or stack software.” left out

`FC(F)(F)c1ccc(CNc2ccc(Cc3c[nH]c4ncc(Cl)cc34)cn2)cn1` [PLX3397] was tested, and the “bridge formation (fibronectin, CD68 staining)” value ([1]; P2 crush, 3 dpi) was “defects of bridge formation”, the “wound healing and axon regeneration after neonatal crush (5-HT, GFAP staining)” value ([1]; P2 crush, 7 dpi) was “impairs wound healing and axon regeneration” and the “GFAP+ reactive astrocytes in the lesion” value ([1]; P2 crush, 14 dpi) was “strong GFAP+ reactive astrocytes accumulating in the epicenter”. For the same molecule, the “accumulation of basal lamina components (CSPG, laminin)” value ([1]; P2 crush, 14 dpi) was “limited accumulations”, the “axon growth at the lesion (5-HT)” value ([1]; P2 crush, 14 dpi) was “majority of axons stalled at the lesion epicenter” and the “blood vessels in the lesion (CD31)” value ([1]; P2 crush, 14 dpi) was “blood vessels were absent”. The “bridge formation between the two severed stumps” value ([1]; P2 injury model, 3 or 7 dpi) was “impaired bridge formation” and the “microglia depletion in neonatal spinal cord” value [2] was “most microglia were depleted”.
